# From patent US20190054093A1, “TREATMENT OF SARCOPENIA WITH ECDYSTEROIDS” (priority 2014, published 2019)
# Key:
# [1] = tested on: Caspase-3 expression in C2C12 myotubes; experiment: Caspase 3 expression in C2C12 myotubes (quantitative RT-PCR, Example 4); type: cell-based, mouse; settings: 24 hours; extracts and turkesterone 0.002, 0.02 and 2 ppm, 20HE 0.001, 0.01 and 1 ppm
# Protocol: Experiments similar to those in example 1 have been carried out with two other plant-derived, ecdysteroid-rich extracts. […] Cells between passages 3 and 10 were seeded at a density of 10,000 cells per cm^2. Cells were grown for 48 h until they reached 80-90% confluence. […] Cells were maintained at 37° C. in a humidified 5% CO2 incubator and medium was changed every other day.
# For RNA and protein extraction C2C12 myotubes were incubated with 0.002, 0.02 and 2 ppm of Rhaponticum carthamoides extract (RCE) and Cyanotis arachnoidea extract (CAE) or 0.001, 0.01 and 1 ppm of 20-hydroxyecdysone or 0.002, 0.02 and 2 ppm of Turkesterone for 24 hours. These two latter served as positive controls. RNA and protein were extracted using All Prep RNA/Protein Kit (Qiagen, Spain). RNA was stored at −80° C. and protein at −20° C. until further use. Total RNA was quantified using a fluorometric method with Quant-iT kit (Invitrogen, Spain). The cDNA was reverse-transcribed from the RNA extract using RT^2First Stand cDNA kit (Qiagen, Spain). Quantitative real-time RT-PCR for Caspase-3 and Myostatin were carried out using a MX3005P Q-PCR System (Agilent Technologies) and SYBR-Green/ROX detection. The housekeeping gene used was Actb and Mouse XpressRef Universal total RNA (Qiagen, Spain) as a positive control. […] The fold change in gene expression was calculated with ΔΔCt Method.
# [2] = rats fed 5 mg/kg BW for 7 days; 20HE derived from Rhaponticum carthamoides; cited from earlier work
# [3] = tested on: C2C12 myotubes; experiment: Protein synthesis by radio-labeled leucine incorporation in C2C12 myotubes (Example 3); type: cell-based, mouse
# [4] = target: T1, recombinant rat androgen receptor (Rattus norvegicus, UniProt P15207); experiment: Androgen receptor binding assay, displacement of [3H]mibolerone; settings: concentrations of 1 to 100 μM
# T1 sequence (P15207 1-902): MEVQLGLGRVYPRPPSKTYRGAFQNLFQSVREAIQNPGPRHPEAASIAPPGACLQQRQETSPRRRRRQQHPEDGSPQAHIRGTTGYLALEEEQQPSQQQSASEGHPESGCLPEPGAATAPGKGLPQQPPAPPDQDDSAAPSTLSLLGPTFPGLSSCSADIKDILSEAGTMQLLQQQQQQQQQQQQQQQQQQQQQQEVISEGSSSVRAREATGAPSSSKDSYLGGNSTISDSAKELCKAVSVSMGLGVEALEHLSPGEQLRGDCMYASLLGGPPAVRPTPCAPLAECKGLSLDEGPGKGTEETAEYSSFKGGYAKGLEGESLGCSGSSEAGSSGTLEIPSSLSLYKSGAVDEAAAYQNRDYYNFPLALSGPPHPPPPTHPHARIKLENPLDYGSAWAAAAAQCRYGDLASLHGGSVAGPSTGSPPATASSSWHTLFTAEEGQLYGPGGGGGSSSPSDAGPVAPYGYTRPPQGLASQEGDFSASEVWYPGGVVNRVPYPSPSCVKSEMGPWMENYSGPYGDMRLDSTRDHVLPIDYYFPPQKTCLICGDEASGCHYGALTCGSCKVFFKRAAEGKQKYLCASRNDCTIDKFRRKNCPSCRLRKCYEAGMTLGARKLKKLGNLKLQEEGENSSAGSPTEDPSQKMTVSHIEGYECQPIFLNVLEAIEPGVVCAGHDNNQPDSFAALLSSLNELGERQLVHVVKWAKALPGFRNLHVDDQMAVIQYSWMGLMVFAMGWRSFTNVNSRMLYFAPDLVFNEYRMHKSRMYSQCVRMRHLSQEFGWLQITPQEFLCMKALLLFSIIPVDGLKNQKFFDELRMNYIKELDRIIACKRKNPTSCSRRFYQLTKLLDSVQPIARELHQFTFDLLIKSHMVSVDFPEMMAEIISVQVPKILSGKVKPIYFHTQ
# Protocol: Briefly, recombinant rat androgen receptor was combined with [3H]mibolerone in a buffer of 50 mM Tris-HCl, pH 7.5, 0.8 M NaCl, 10% glycerol, 2 mM dithiothreitol, 1 mg/mlL BSA, and 2% ethanol. DPM of the incubation buffer was measured to quantify displacement of the labeled ligand.
# [5] = tested on: Primary human skeletal muscle cells; experiment: Protein synthesis by radio-labeled leucine incorporation in human skeletal myotubes (Example 3); settings: 100 nM, 24 h of treatment
# Protocol: Primary human skeletal muscle cells (a gift from Dr. William Cefalu of the Pennington Biomedical Research Center, Baton Rouge, La.) were seeded at a density of 10^5 cells/cm2 onto 24-well tissue culture plates. The cells were grown in DMEM supplemented with 10% FBS and a SingleQuot Kit (Lonza, Portsmouth, N.H.) containing epidermal growth factor, insulin, bovine serum albumin (BSA), fetuin, dexamethasone, and gentamicin/amphotericin-B. Cells were grown for 96 h in 5% CO2 at 37° C. until they reached 80% confluency, and the medium was replaced with differentiation medium (DMEM with 2% horse serum). After 18 days, myoblasts fused into multinucleated myotubes. […] Additionally, extracts of spinach or Ajuga turkestanica were also added. Radio-labeled leucine was used to assess any changes in protein synthesis. Decays per minute (DPM) were measured in a liquid scintillation counter (LS 6500, Beckman Coulter). Total protein was quantified using the bicinchoninic acid (BCA) method following the manufacturer's instructions (Pierce, Rockford, Ill.). The data were expressed as DPM per milligram of total protein.
# [6] = tested on: C2C12 myotubes; type: cell-based, mouse; settings: dose response experiment; 16 h
# Protocol: After cells reached 80-90% confluence (72 hours post-seeding) the media was replaced with differentiation media (DM): DMEM containing 2% horse serum (PAA; GE HealthCare), 10 mM Hepes (Lonza), 6 mM glutamine, 100 U/mL penicilin and 100 μgr/mL streptomycin (Biochrom). Media was replaced every 2 days, and after 10 days the myoblast has fused into multinucleated myotubes showing a fusion index of 70-80%.
# Before cell treatment, a 2000× Botanicals Extracts Stocks solutions were prepared in Biological grade DMSO (Sigma) or Ultrapure H2O (milliQ; Millipore), sonicated for 30 min and Filtered using a 0.22 μm pore size syringe filter membrane (Millipore). […]
# Protein synthesis was determined by measuring the incorporation of the tritiated L-Leucine (^3H-Leu) into C2C12 cellular proteins. […] Radioactivity was measured using a liquid scintillation counter (Tri-Carb, Perkin Elmer) and expressed as decay per minute (DPM). Total protein was quantified using Bradford method-based assay (microassay procedure) following the manufacturer's instructions (Biorad protein assay, BioRad Laboratories). Protein synthesis was calculated from the trichloroacetic acid-insoluble radioactivity incorporated per microgram of total protein. Results were expressed as relative increase in L-[3H]-Leucine compared with 100% of not treated Control. […]
smiles,measurement,setting,value
"CC(C)(O)CC[C@@H](O)[C@](C)(O)[C@H]1CC[C@@]2(O)C3=CC(=O)[C@@H]4C[C@@H](O)[C@@H](O)C[C@]4(C)[C@H]3CC[C@]12C [Example 20HE, 20-hydroxyecdysone]",regulation of Caspase 3 expression,[1],significant effect in down regulation
same,"weight of liver, heart, kidneys and the tibialis anterior muscle",[2],increases
same,"protein synthesis, % of control",[3]; 40 nM,110 % of control
same,"protein synthesis, % of control (peak effect)",[3]; 0.1 μM,120 % of control
same,inhibition of [3H]mibolerone binding,[4],did not show any significant inhibition
same,"protein synthesis, % of control",[5],120 % of control
same,protein synthesis versus the control group,[6],statistically significant increase
